From US9169254B2, “Spiroimidazolone derivative” (Chugai Seiyaku Kabushiki Kaisha, priority 2009, dated 2015) come the findings set out here.

Molecules are shown by their SMILES.

For the first experiment, the target named is T1, human PTH1 receptor (Homo sapiens, UniProt Q03431).
T1 sequence (Q03431 27-593): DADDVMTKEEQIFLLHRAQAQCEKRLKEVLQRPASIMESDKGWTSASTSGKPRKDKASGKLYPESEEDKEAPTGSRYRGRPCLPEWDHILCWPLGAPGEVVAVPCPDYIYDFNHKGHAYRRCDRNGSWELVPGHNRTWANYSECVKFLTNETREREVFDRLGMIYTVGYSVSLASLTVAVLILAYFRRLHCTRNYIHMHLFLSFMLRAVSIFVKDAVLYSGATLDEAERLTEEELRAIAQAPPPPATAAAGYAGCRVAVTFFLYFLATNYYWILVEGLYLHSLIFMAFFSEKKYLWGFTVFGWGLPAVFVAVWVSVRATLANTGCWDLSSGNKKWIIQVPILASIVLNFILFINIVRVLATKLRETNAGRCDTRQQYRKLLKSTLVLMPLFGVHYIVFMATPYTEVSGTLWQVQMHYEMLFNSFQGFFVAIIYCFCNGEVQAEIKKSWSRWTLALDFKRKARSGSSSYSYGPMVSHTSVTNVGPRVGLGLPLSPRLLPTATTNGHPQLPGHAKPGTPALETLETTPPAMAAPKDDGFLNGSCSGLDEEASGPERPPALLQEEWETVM
Nature of the experiment: In vitro cAMP signal activity in HKRK-B7 cells (LLC-PK1 cells overexpressing the human PTH1 receptor). Type of experiment: cell-based. The following applies: 0.1 µM.
Turning to `Cc1cc2ccc1CCS(=O)(=O)N1CCC3(CC1)N=C(NC3=O)c1cc(cc(C(F)(F)F)c1)OCC(F)(F)C(F)(F)C(F)(F)COCCN(C)C2=O` [Compound 1441], the “cAMP production activity (%)” value was 5.0%.

The experiment is the same for the next values; noted with them: HKRK-B7 cells; compound at 1×10^−3 M; cAMP produced as percentage of that produced by hPTH(1-34) at 100 nM.
For `Cc1nc(C)c(C2=NC3(CCN(S(=O)(=O)CCc4ccc(C(=O)N(C)C)cc4C)CC3)C(=O)N2)s1` [Compound 102, 4-{2-[2-(2,4-dimethyl-thiazol-5-yl)-4-oxo-1,3,8-triaza-spiro[4.5]dec-1-ene-8-sulfonyl]-ethyl}-3,N,N-trimethyl-benzamide], the “cAMP production activity (%)” value is reported as 23%.
The same measure, in the same setting: as for `Cc1cc(C(=O)N(C)C)ccc1CCS(=O)(=O)N1CCC2(CC1)N=C(c1cc(F)cc(C(F)(F)F)c1)NC2=O` [Compound 115, 4-{2-[2-(3-fluoro-5-trifluoromethyl-phenyl)-4-oxo-1,3,8-triaza-spiro[4.5]dec-1-ene-8-sulfonyl]-ethyl}-3,N,N-trimethyl-benzamide], the figure is 81%.
In the case of `O=C1NC(c2ccc(Cl)cc2Cl)=NC12CCN(S(=O)(=O)c1ccc(F)c(Cl)c1)CC2` [Compound 49, 8-(3-chloro-4-fluoro-benzenesulfonyl)-2-(2,4-dichloro-phenyl)-1,3,8-triaza-spiro[4.5]dec-1-en-4-one], the “cAMP production activity (%)” value amounted to 29%.
On the same count and under the same terms, next, `Cc1cc(C(=O)N(C)C)ccc1CCS(=O)(=O)N1CCC2(CC1)N=C(c1nccn1C)NC2=O` [Compound 122, 3,N,N-trimethyl-4-{2-[2-(1-methyl-1H-imidazol-2-yl)-4-oxo-1,3,8-triaza-spiro[4.5]dec-1-ene-8-sulfonyl]-ethyl}-benzamide]: 3.0%; `COCCN(C(C)=O)c1cc(C)c(/C=C/S(=O)(=O)N2CCC3(CC2)N=C(C2CCC(CCC(F)(F)F)CC2)NC3=O)c(C)c1` (stereo not drawn) [Compound 543, N-[3,5-dimethyl-4-((E)-2-{4-oxo-2-[4-(3,3,3-trifluoro-propyl)-cyclohexyl]-1,3,8-triaza-spiro[4.5]dec-1-ene-8-sulfonyl}-vinyl)-phenyl]-N-(2-methoxy-ethyl)-acetamide]: 76%.
The same measure, in the same setting: next, `CC(=O)Nc1ccc(CCS(=O)(=O)N2CCC3(CC2)N=C(C2CCC(COCC(F)(F)F)CC2)NC3=O)c(C)c1` (stereo not drawn) [Compound 919, N-[3-methyl-4-(2-{4-oxo-2-[4-(2,2,2-trifluoro-ethoxymethyl)-cyclohexyl]-1,3,8-triaza-spiro[4.5]dec-1-ene-8-sulfonyl}-ethyl)-phenyl]-acetamide]: 68%; `CN(C)C(=O)c1ccc(CCS(=O)(=O)N2CCC3(CC2)N=C(c2cccc(OC(F)(F)F)c2)NC3=O)c(F)c1` [Compound 293, 3-fluoro-N,N-dimethyl-4-{2-[4-oxo-2-(3-trifluoromethoxy-phenyl)-1,3,8-triaza-spiro[4.5]dec-1-ene-8-sulfonyl]-ethyl}-benzamide]: 38%; `Cc1cc(C(=O)N2CCN(CCF)CC2)cc(C)c1CCS(=O)(=O)N1CCC2(CC1)N=C(C1CCC(CCC(F)(F)F)CC1)NC2=O` (stereo not drawn) [Compound 761, 8-(2-{4-[4-(2-fluoro-ethyl)-piperazine-1-carbonyl]-2,6-dimethyl-phenyl}-ethanesulfonyl)-2-[4-(3,3,3-trifluoro-propyl)-cyclohexyl]-1,3,8-triaza-spiro[4.5]dec-1-en-4-one]: 104%.
Same read-out and setting: as for `Cc1cc(C(=O)N(C)C)ccc1CCS(=O)(=O)N1CCC2(CC1)N=C(C1CCC(F)(F)CC1)NC2=O` [Compound 890, 4-{2-[2-(4,4-Difluoro-cyclohexyl)-4-oxo-1,3,8-triaza-spiro[4.5]dec-1-ene-8-sulfonyl]-ethyl}-3,N,N-trimethyl-benzamide], the figure is 61%; as for `Cc1cc(S(=O)(=O)NC(CO)(CO)CO)ccc1/C=C/S(=O)(=O)N1CCC2(CC1)N=C(c1cccc(C(F)(F)F)c1)NC2=O` [Compound 595, N-(2-hydroxy-1,1-bis-hydroxymethyl-ethyl)-3-methyl-4-{(E)-2-[4-oxo-2-(3-trifluoromethyl-phenyl)-1,3,8-triaza-spiro[4.5]dec-1-ene-8-sulfonyl]-vinyl}-benzenesulfonamide], 63%.
Turning to `CCCCC#CCCCC1=NC2(CCN(S(=O)(=O)/C=C/c3c(C)cc(N(C)C(N)=O)cc3C)CC2)C(=O)N1` [Compound 1024, 1-{3,5-dimethyl-4-[(E)-2-(2-non-4-ynyl-4-oxo-1,3,8-triaza-spiro[4.5]dec-1-ene-8-sulfonyl)-vinyl]-phenyl}-1-methyl-urea], the “cAMP production activity (%)” value was determined as 66%.
`CCC1CCC(C2=NC3(CCN(S(=O)(=O)CCc4ccc(C(=O)N(C)C)cc4C)CC3)C(=O)N2)CC1` (stereo not drawn) [Compound 896, 4-{2-[2-(4-ethyl-cyclohexyl)-4-oxo-1,3,8-triaza-spiro[4.5]dec-1-ene-8-sulfonyl]-ethyl}-3,N,N-trimethyl-benzamide]: the “cAMP production activity (%)” value was 83%.
On to `CC(C)(C)OCC(=O)N1CCCC(C2=NC3(CCN(S(=O)(=O)CCc4cccc5ccccc45)CC3)C(=O)N2)C1` (stereo not drawn) [Compound 439, 2-[1-(2-tert-butoxy-acetyl)-piperidin-3-yl]-8-(2-naphthalen-1-yl-ethanesulfonyl)-1,3,8-triaza-spiro[4.5]dec-1-en-4-one], for which the “cAMP production activity (%)” value worked out at 33%.
Regarding `CC(=O)Nc1ccc(CCS(=O)(=O)N2CCC3(CC2)N=C(c2cccc(C#N)c2)NC3=O)c(C)c1` [Compound 907, N-(4-{2-[2-(3-cyano-phenyl)-4-oxo-1,3,8-triaza-spiro[4.5]dec-1-ene-8-sulfonyl]-ethyl}-3-methyl-phenyl)-acetamide], the “cAMP production activity (%)” value is 85%.
On to `Cc1cc(OC[C@H](O)CO)cc(C)c1/C=C/S(=O)(=O)N1CCC2(CC1)N=C(c1ccc(F)c(OC(F)(F)F)c1)NC2=O` [Compound 1164, 8-{(E)-2-[4-((R)-2,3-Dihydroxy-propoxy)-2,6-dimethyl-phenyl]-ethenesulfonyl}-2-(4-fluoro-3-trifluoromethoxy-phenyl)-1,3,8-triaza-spiro[4.5]dec-1-en-4-one], for which the “cAMP production activity (%)” value came to 4.7%.
For the compound `CCSCCCCCCC1=NC2(CCN([S@TB18](=O)(=O)CCc3c(C)cc(N(C)C(N)=O)cc3C)CC2)C(=O)N1` [Compound 1154, 1-(4-{2-[2-(6-ethylsulfanyl-hexyl)-4-oxo-1,3,8-triaza-spiro[4.5]dec-1-ene-8-sulfonyl]-ethyl}-3,5-dimethyl-phenyl)-1-methyl-urea], the “cAMP production activity (%)” value is 115%.
The same measure, in the same setting: as for `CC[C@H]1CC[C@H](C2=NC3(CCN(S(=O)(=O)/C=C/c4ccc(N5CC(=O)NC5=O)cc4C)CC3)C(=O)N2)CC1` [Compound 624, 1-(4-{(E)-2-[2-(4-Ethyl-cyclohexyl)-4-oxo-1,3,8-triaza-spiro[4.5]dec-1-ene-8-sulfonyl]-vinyl}-3-methyl-phenyl)-imidazolidine-2,4-dione], the figure is 36%; as for `Cc1cc(N(C)C(N)=O)cc(C)c1CCS(=O)(=O)N1CCC2(CC1)N=C(c1ccc3c(c1)CCCC3)NC2=O` [Compound 1039, 1-(3,5-Dimethyl-4-{2-[4-oxo-2-(5,6,7,8-tetrahydro-naphthalen-2-yl)-1,3,8-triaza-spiro[4.5]dec-1-ene-8-sulfonyl]-ethyl}-phenyl)-1-methyl-urea], 103%.
In the case of `Cc1cc(N(C)C(N)=O)cc(C)c1/C=C/[S@TB3](=O)(=O)N1CCC2(CC1)N=C(c1ccc(F)c(OC(F)(F)F)c1)NC2=O` [Compound 1111, 1-(4-{(E)-2-[2-(4-fluoro-3-trifluoromethoxy-phenyl)-4-oxo-1,3,8-triaza-spiro[4.5]dec-1-ene-8-sulfonyl]-vinyl}-3,5-dimethyl-phenyl)-1-methyl-urea], the “cAMP production activity (%)” value amounted to 79%.
Same read-out and setting: as for `O=C1NC(C2CCCCC2)=NC12CCN(S(=O)(=O)/C=C/c1cccc3c1ccn3Cc1nccs1)CC2` [Compound 483, 2-cyclohexyl-8-[(E)-2-(1-thiazol-2-ylmethyl-1H-indol-4-yl)-ethenesulfonyl]-1,3,8-triaza-spiro[4.5]dec-1-en-4-one], the figure is 41%; as for `Cc1cc(OCCC(O)CO)ccc1/C=C/S(=O)(=O)N1CCC2(CC1)N=C(c1ccc3c(c1)OC(F)(F)O3)NC2=O` (stereo not drawn) [Compound 1167, 2-(2,2-difluoro-benzo[1,3]dioxol-5-yl)-8-{(E)-2-[4-(3,4-dihydroxy-butoxy)-2-methyl-phenyl]-ethenesulfonyl}-1,3,8-triaza-spiro[4.5]dec-1-en-4-one], 115%; as for `O=C1NC(c2cccc(OC(F)(F)F)c2)=NC12CCN(S(=O)(=O)CCc1cccc3ncccc13)CC2` [Compound 654, 8-(2-quinolin-5-yl-ethanesulfonyl)-2-(3-trifluoromethoxy-phenyl)-1,3,8-triaza-spiro[4.5]dec-1-en-4-one], 50%.
For `Cc1cc(C(=O)N2CCC(O)(CF)CC2)cc(C)c1/C=C/S(=O)(=O)N1CCC2(CC1)N=C(c1ccc(F)c(C(F)F)c1)NC2=O` [Compound 1256, 2-(3-difluoromethyl-4-fluoro-phenyl)-8-{(E)-2-[4-(4-fluoromethyl-4-hydroxy-piperidine-1-carbonyl)-2,6-dimethyl-phenyl]-ethenesulfonyl}-1,3,8-triaza-spiro[4.5]dec-1-en-4-one], the “cAMP production activity (%)” value is listed as 72%.
